Assay results reported in patent US8440720B2, “Methods of use of antiviral compounds” (Influmedix, Inc., priority 2009, dated 2013).

Biological target: T1, M2(S31) (Influenza A virus, UniProt P0DOF5)
T1 construct: expressed in transfected cells; host or cells: CHO cell membranes
Assay: Cell-free electrophysiology of M2 proton channels on solid supported membranes (IonGate SURFE2R)
Assay type: biochemical
Settings: 25 μM compound, activation by pH jump 7.0 to 6.0, read-out: IonGate_M2(S31)_Screen % Inhibition at 25 μM

T1 sequence (P0DOF5 whole entry): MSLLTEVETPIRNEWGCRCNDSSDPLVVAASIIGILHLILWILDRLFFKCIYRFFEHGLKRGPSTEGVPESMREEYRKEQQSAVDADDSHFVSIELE

| SMILES | inhibition at 25 µM [%] |
| --- | --- |
| NCC(O)C12CC3CC(CC(C3)C1)C2 (racemic) [Cpd 5] | 51 to 95 |
| c1ncn(C23CC4CC(CC(C4)C2)C3)n1 [Cpd 1] | 11 to 50 |
| c1cn(C23CC4CC(CC(C4)C2)C3)cn1 [Cpd 2] | 11 to 50 |
| Nc1nc(N)n(C23CC4CC(CC(C4)C2)C3)n1 [Cpd 3] | 11 to 50 |
| Nc1ccn(C23CC4CC(CC(C4)C2)C3)n1 [Cpd 4] | 11 to 50 |
| C1CNC(C23CC4CC(CC(C4)C2)C3)=N1 [Cpd 6] | 51 to 95 |
| NCC12CC3CC(C1)C(O)C(C3)C2 (stereo not shown) [Cpd 7] | 11 to 50 |
| NCC12CC3CC(C1)C(F)C(C3)C2 (stereo not shown) [Cpd 8, C-(4-Fluoro-adamantan-1-yl)-methylamine] | 51 to 95 |
| CC1(O)C2CC3CC1CC(CN)(C3)C2 (stereo not shown) [Cpd 11, 5-Aminomethyl-2-methyl-adamantan-2-ol] | 11 to 50 |
| NC12CC3CC(C1)CC(F)(C3)C2 [Cpd 12] | 51 to 95 |
| NC12CC3CC(C1)C(F)C(C3)C2 (stereo not shown) [Cpd 13, 4-Fluoroadamantan-1-amine] | 51 to 95 |
| NC12CC3CC(C1)C(O)C(C3)C2 (stereo not shown) [Cpd 14] | 11 to 50 |
| NC12CC3CC(C1)C(=O)C(C3)C2 [Cpd 15] | 11 to 50 |
| N#CC1C2CC3CC1CC(N)(C3)C2 (stereo not shown) [Cpd 16, 5-Amino-adamantane-2-carbonitrile] | 51 to 95 |
| NC12CC3CC(C1)C(F)(F)C(C3)C2 [Cpd 17, 4,4-Difluoro-adamantan-1-ylamine] | 11 to 50 |
| CC1(F)C2CC3CC1CC(N)(C3)C2 (stereo not shown) [Cpd 18, 4-Fluoro-4-methyl-adamantan-1-ylamine] | 51 to 95 |

| SMILES | inhibition at 25 µM [%] |
| --- | --- |
| NC12CC3CC(C1)C(=S)C(C3)C2 [Cpd 19, 5-Amino-adamantane-2-thione] | 11 to 50 |
| NC12CC3CC(C1)C(S)C(C3)C2 (stereo not shown) [Cpd 20, 5-Amino-adamantane-2-thiol] | 11 to 50 |
| NC12CC3CC(C1)C(CF)C(C3)C2 (stereo not shown) [Cpd 21, 4-Fluoromethyl-adamantan-1-ylamine] | 51 to 95 |
| NC12CC3CC(C1)C(=NO)C(C3)C2 [Cpd 23, 5-Amino-adamantan-2-one oxime] | 11 to 50 |
| NC12CC3CC(C1)C1(OCCO1)C(C3)C2 [Cpd 24] | 11 to 50 |
| COC1C2CC3CC1CC(CN)(C3)C2 (stereo not shown) [Cpd 25, C-(4-Methoxy-adamantan-1-yl)-methylamine] | 51 to 95 |
| N#CC1C2CC3CC1CC(CN)(C3)C2 (stereo not shown) [Cpd 26, 5-Aminomethyl-adamantane-2-carbonitrile] | 51 to 95 |
| O=[N+]([O-])CC12CC3CC(C1)C(O)C(C3)C2 (stereo not shown) [Cpd 27, 5-Nitromethyl-adamantan-2-ol] | 11 to 50 |
| O=[N+]([O-])CC12CC3CC(C1)C(F)C(C3)C2 (stereo not shown) [Cpd 28, 4-Fluoro-1-nitromethyl-adamantane] | 11 to 50 |
| NC12CC3CC(C1)CC(S)(C3)C2 [Cpd 29] | 51 to 95 |
| O=[N+]([O-])C12CC3CC(CC(F)(C3)C1)C2 [Cpd 30, 3-Fluoro-1-nitro-adamantane] | 1 to 10 |
| N=C(N)NC12CC3CC(CC(F)(C3)C1)C2 [Cpd 31, N-(3-Fluoro-adamantan-1-yl)-guanidine] | 11 to 50 |
| COC12CC3CC(CC(N)(C3)C1)C2 [Cpd 32] | 1 to 10 |
| NC12CC3CC(CC(C3)C1O)C2 (stereo not shown) [Cpd 34] | 51 to 95 |
| CC1(O)C2CC3CC(C2)CC1(N)C3 (stereo not shown) [Cpd 35, 1-Amino-2-methyl-adamantan-2-ol] | 11 to 50 |
